Experimental findings from ChEMBL document CHEMBL1133613, “1-[4-(3-Phenylalkyl)phenyl]-2-aminopropanes as 5-HT(2A) partial agonists” (J Med Chem, 2000) are described below.

Each structure is given as a SMILES string.

By Ki is commonly meant a measure of affinity in units of concentration, obtained from inhibition or displacement.

The target in assay [1] is T1, 5-hydroxytryptamine receptor 2C (Rattus norvegicus, UniProt P08909).
T1 sequence (P08909 whole entry): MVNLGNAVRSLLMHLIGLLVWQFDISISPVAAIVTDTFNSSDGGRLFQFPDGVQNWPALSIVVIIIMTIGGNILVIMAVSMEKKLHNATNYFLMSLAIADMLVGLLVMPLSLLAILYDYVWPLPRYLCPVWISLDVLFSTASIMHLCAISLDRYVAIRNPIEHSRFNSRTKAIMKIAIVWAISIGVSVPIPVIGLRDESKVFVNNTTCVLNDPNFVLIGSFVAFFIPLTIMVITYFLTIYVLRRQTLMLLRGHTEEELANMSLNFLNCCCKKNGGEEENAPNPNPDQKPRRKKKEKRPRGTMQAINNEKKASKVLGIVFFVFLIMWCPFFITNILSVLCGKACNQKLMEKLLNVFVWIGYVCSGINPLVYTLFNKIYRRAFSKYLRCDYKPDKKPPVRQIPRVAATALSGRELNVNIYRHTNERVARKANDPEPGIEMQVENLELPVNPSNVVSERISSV
In words: Displacement of [3H]mesulergine from A9 cells stably expressing rat 5-hydroxytryptamine 2C receptor. The assay is classed as cell-based.

The target of assay [2] is Serotonin receptor 2a and 2c (5HT2A and 5HT2C) (Rattus norvegicus) (UniProt P08909+P14842). In words: Relative affinities for rat 5-HT2C receptors and 5-HT2A receptors. The assay is classed as protein assay.
The target of assay [3] is 5-hydroxytryptamine receptor 2A (Rattus norvegicus, UniProt P14842). In words: Displacement of [3H]ketanserin from NIH3T3 cells stably expressing rat 5-hydroxytryptamine 2A receptor. The assay is classed as cell-based. (Loss of bound radioactivity is the signal in a displacement assay; it reports binding, not function.)
5-hydroxytryptamine receptor 2A, sequence (P14842 whole entry): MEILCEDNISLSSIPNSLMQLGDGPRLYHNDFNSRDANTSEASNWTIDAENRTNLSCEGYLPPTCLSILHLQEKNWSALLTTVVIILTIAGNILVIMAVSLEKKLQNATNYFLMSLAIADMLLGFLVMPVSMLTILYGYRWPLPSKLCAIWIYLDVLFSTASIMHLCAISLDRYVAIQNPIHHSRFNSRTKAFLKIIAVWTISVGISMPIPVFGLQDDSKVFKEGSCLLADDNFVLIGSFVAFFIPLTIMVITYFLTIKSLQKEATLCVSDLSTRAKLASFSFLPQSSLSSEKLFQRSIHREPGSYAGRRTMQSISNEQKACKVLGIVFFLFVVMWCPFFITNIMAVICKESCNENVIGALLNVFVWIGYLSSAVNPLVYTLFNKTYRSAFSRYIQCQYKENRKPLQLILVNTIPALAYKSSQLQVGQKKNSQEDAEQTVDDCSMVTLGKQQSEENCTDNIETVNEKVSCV

Serotonin receptor 2a and 2c (5HT2A and 5HT2C) (Rattus norvegicus), sequence (P14842 whole entry, looked up, one chain of several): as the sequence (P14842 whole entry) above

As for `COc1cc(CCCc2ccccc2)cc(OC)c1CC(C)N` (configuration not stated), the Ki worked out at 39 nM in assay [1] and 3 nM in assay [3]. Also, the Selectivity in assay [2] is 13.
Turning to `COc1cc(CC(C)N)cc(OC)c1CCCc1ccccc1` (configuration not stated), the Ki in assay [1] came out at 40 nM; in assay [3] it was 4 nM. Besides, in assay [2], the Selectivity worked out at 10.
For `COc1cc(CC(C)N)c(OC)cc1CCCCc1ccccc1` (configuration not stated), in that order: 6 nM, 8 nM and 0.8.
As to `COc1cccc(CC(C)N)c1OC` (configuration not stated), the figures for the inhibition constant Ki in assay [1] and in assay [3] were more than 10000 nM and 4280 nM, respectively.
For the compound `COc1cc(CCc2ccccc2)c(OC)cc1CCN`, the Ki in assay [1] was found to be 76 nM; in assay [3], 37 nM. Moreover, in assay [2], the Selectivity was determined as 2.
Regarding `COc1cc(CCCCc2ccccc2)c(OC)cc1CCN`, the Ki in assay [1] stood at 25 nM; in assay [3], 115 nM. Also, the Selectivity in assay [2] was 0.2.
Consider `COc1c(CCCc2ccccc2)ccc(CC(C)N)c1OC` (configuration not stated), for which the Ki came out at 79 nM in assay [1] and 4 nM in assay [3]. The compound further had a Selectivity in assay [2] of 19.8.
For `COc1ccccc1CC(C)N` (configuration not stated), the Ki in assay [1] and in assay [3] was more than 10000 nM throughout.
For the compound `COc1cc(CCCc2ccccc2)c(OC)cc1CCN`, the Ki was determined as 28 nM in assay [1] and 150 nM in assay [3]. In assay [2], this compound registered a Selectivity of 0.2.
In assay [3], `COc1cc(CCN)c(OC)cc1Br` returned a Ki of 16 nM.
`COc1ccc(OC)c(CC(C)N)c1` (configuration not stated): the Ki in assay [1] is more than 10000 nM; in assay [3], 4720 nM.
Take `COc1cc(CC(C)N)cc(OC)c1Br` (configuration not stated): the Ki came to 570 nM in assay [1] and 210 nM in assay [3].
With `COc1cc(CC(C)N)c(OC)cc1CCc1ccccc1` (configuration not stated), the values for the Ki in assay [1] and in assay [3] were 140 nM and 95 nM, respectively. The same compound showed a Selectivity in assay [2] of 1.5.
Turning to `COc1cccc(OC)c1CC(C)N` (configuration not stated), the Ki in assay [1] and in assay [3] was more than 10000 nM throughout.
Turning to `NCCc1ccc(CCCc2ccccc2)cc1`, the Ki in assay [1] worked out at 525 nM; in assay [3] it was 60 nM. The Selectivity in assay [2] was found to be 8.9.
Turning to `COc1cc(C[C@@H](C)N)cc(OC)c1`, the Ki in assay [1] and in assay [3] was more than 10000 nM each time.
For `CC(N)Cc1ccc(CCCc2ccccc2)cc1` (configuration not stated), the Ki in assay [1] was 530 nM; in assay [3] it was 78 nM. In assay [2], this compound displayed a Selectivity of 6.8.
Regarding `COc1ccc(CCCc2cc(OC)c(CC(C)N)cc2OC)cc1` (configuration not stated), the Ki is 24 nM in assay [1] and 28 nM in assay [3]. Besides, the Selectivity in assay [2] worked out at 0.9.
Turning to `COc1cc(CCCc2ccccc2)ccc1CC(C)N` (configuration not stated), the Ki came out at 89 nM in assay [1] and 8 nM in assay [3]. The compound also gave a Selectivity in assay [2] of 11.1.
For `COc1cc(CC(C)N)c(OC)cc1CCCc1ccccc1` (configuration not stated), in that order: 50 nM, 30 nM and 1.7.
Regarding `COc1cccc(CC(C)N)c1` (configuration not stated), the Ki in assay [1] and in assay [3] was more than 10000 nM throughout.
As for `COc1ccc(OC)c(CCN)c1`, the Ki turned out to be 5520 nM in assay [1] and 3000 nM in assay [3].
In the case of `COc1cc(CC(C)N)ccc1CCCc1ccccc1` (configuration not stated), the values for the inhibition constant Ki in assay [1] and in assay [3] were 135 nM and 17 nM, respectively. Besides, the Selectivity in assay [2] is 7.9.
Consider `COc1cc(CC(C)N)c(OC)cc1CCCc1ccc(Cl)cc1` (configuration not stated), for which the Ki turned out to be 16 nM in assay [1] and 12 nM in assay [3]. Further, the Selectivity in assay [2] was determined as 1.3.
